Source: patent US10689367B2, “Triazole pyridyl compounds as agonists of the APJ receptor” (AMGEN INC., priority 2016, dated 2020)

Biological target: human APJ receptor (Homo sapiens (Human), UniProt P35414)
Experiment: [35S]GTPγS binding assay on membranes from CHO cells stably expressing human APJ receptor
Type: biochemical
Conditions: membranes of CHO cells stably expressing human APJ receptor, read-out: Activity hAPJ SPA EC50 IP
Protocol: The human APJ receptor was cloned by polymerase chain reaction and the gene encoding the receptor was subcloned in pFLAG-CMV™-3 expression vector (Sigma, Saint Louis, Mo. USA) in-house at Amgen. A GTPγS binding assay was performed on membranes prepared from CHO cells stably expressing human APJ receptor. The optimum experimental conditions for the concentrations of GDP, MgCl2, and NaCl in the assay buffer were initially determined. […] Incubation was at RT for 90 min and the microplate was read using a ViewLux™ ultra HTS Microplate Imager (PerkinElmer, Inc.). All the results presented are means of several independent experiments and analyzed by non-linear regression methods using the commercially available program Prism (GraphPad, San Diego, Calif.) providing the EC50 values detailed in Table 27.

Chain of human APJ receptor (P35414 whole entry): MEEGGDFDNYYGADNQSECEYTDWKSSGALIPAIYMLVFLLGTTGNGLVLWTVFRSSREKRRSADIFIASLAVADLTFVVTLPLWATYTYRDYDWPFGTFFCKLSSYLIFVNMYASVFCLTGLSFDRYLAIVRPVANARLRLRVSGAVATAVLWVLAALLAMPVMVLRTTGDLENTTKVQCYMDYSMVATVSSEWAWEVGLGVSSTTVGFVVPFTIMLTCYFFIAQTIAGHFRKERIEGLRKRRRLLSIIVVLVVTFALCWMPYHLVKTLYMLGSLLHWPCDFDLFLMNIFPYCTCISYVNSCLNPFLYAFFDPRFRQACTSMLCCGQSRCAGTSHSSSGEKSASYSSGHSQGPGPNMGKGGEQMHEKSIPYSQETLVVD

SMILES | EC50
COc1cccc(-c2nnc(NS(=O)(=O)[C@@H](C)[C@@H](OC(C)C)c3ncc(C)cn3)n2C[C@H]2CCCO2)n1 (racemic) [Example 277.0, (1S,2S)-1-isopropoxy-N-(5-(6-methoxypyridin-2-yl)-4-(((R)-tetrahydrofuran-2-yl)methyl)-4H-1,2,4-triazol-3-yl)-1-(5-methylpyrimidin-2-yl)propane-2-sulfonamide or (1S,2S)-1-isopropoxy-N-(5-(6-methoxypyridin-2-yl)-4-(((S)-tetrahydrofuran-2-yl)methyl)-4H-1,2,4-triazol-3-yl)-1-(5-methylpyrimidin-2-yl)propane-2-sulfonamide] | 14 nM
COc1cccc(-c2nnc(NS(=O)(=O)[C@@H](C)[C@@H](OC(C)C)c3ncc(C)cn3)n2C[C@H]2CCCO2)n1 (racemic) [Example 278.0, (1S,2S)-1-isopropoxy-N-(5-(6-methoxypyridin-2-yl)-4-(((R)-tetrahydrofuran-2-yl)methyl)-4H-1,2,4-triazol-3-yl)-1-(5-methylpyrimidin-2-yl)propane-2-sulfonamide or (1S,2S)-1-isopropoxy-N-(5-(6-methoxypyridin-2-yl)-4-(((S)-tetrahydrofuran-2-yl)methyl)-4H-1,2,4-triazol-3-yl)-1-(5-methylpyrimidin-2-yl)propane-2-sulfonamide] | 16 nM
COc1cccc(-c2nnc(NS(=O)(=O)[C@@H](C)[C@H](C)c3ncc(Cl)cn3)n2C[C@H]2CCCO2)n1 (racemic) [Example 281.0, (2S,3R)-3-(5-chloropyrimidin-2-yl)-N-(5-(6-methoxypyridin-2-yl)-4-(((R)-tetrahydrofuran-2-yl)methyl)-4H-1,2,4-triazol-3-yl)butane-2-sulfonamide or (2S,3R)-3-(5-chloropyrimidin-2-yl)-N-(5-(6-methoxypyridin-2-yl)-4-(((S)-tetrahydrofuran-2-yl)methyl)-4H-1,2,4-triazol-3-yl)butane-2-sulfonamide] | 110 nM
COc1cccc(-c2nnc(NS(=O)(=O)[C@@H](C)[C@H](C)c3ncc(Cl)cn3)n2C[C@H]2CCCO2)n1 (racemic) [Example 282.0, (2S,3R)-3-(5-chloropyrimidin-2-yl)-N-(5-(6-methoxypyridin-2-yl)-4-(((R)-tetrahydrofuran-2-yl)methyl)-4H-1,2,4-triazol-3-yl)butane-2-sulfonamide or (2S,3R)-3-(5-chloropyrimidin-2-yl)-N-(5-(6-methoxypyridin-2-yl)-4-(((S)-tetrahydrofuran-2-yl)methyl)-4H-1,2,4-triazol-3-yl)butane-2-sulfonamide] | 54 nM
COc1cccc(-c2nnc(NS(=O)(=O)[C@@H](C)[C@H](OC)c3ncc(Cl)cn3)n2C[C@H]2CCCCO2)n1 (racemic) [Example 287.0, (1R,2S)-1-(5-chloropyrimidin-2-yl)-1-methoxy-N-(5-(6-methoxypyridin-2-yl)-4-(((R)-tetrahydro-2H-pyran-2-yl)methyl)-4H-1,2,4-triazol-3-yl)propane-2-sulfonamide or (1R,2S)-1-(5-chloropyrimidin-2-yl)-1-methoxy-N-(5-(6-methoxypyridin-2-yl)-4-(((S)-tetrahydro-2H-pyran-2-yl)methyl)-4H-1,2,4-triazol-3-yl)propane-2-sulfonamide] | 5.9 nM
COc1cccc(-c2nnc(NS(=O)(=O)[C@@H](C)[C@H](OC)c3ncc(Cl)cn3)n2C[C@H]2CCCCO2)n1 (racemic) [Example 288.0, (1R,2S)-1-(5-chloropyrimidin-2-yl)-1-methoxy-N-(5-(6-methoxypyridin-2-yl)-4-(((R)-tetrahydro-2H-pyran-2-yl)methyl)-4H-1,2,4-triazol-3-yl)propane-2-sulfonamide or (1R,2S)-1-(5-chloropyrimidin-2-yl)-1-methoxy-N-(5-(6-methoxypyridin-2-yl)-4-(((S)-tetrahydro-2H-pyran-2-yl)methyl)-4H-1,2,4-triazol-3-yl)propane-2-sulfonamide] | 3.3 nM
COc1cccc(-c2nnc(NS(=O)(=O)[C@@H](C)[C@H](C)c3ncc(Cl)cn3)n2[C@H](C)c2cnn(C)c2)n1 (racemic) [Example 297.0, (2S,3R)-3-(5-chloropyrimidin-2-yl)-N-(5-(6-methoxypyridin-2-yl)-4-((R)-1-(1-methyl-1H-pyrazol-4-yl)ethyl)-4H-1,2,4-triazol-3-yl)butane-2-sulfonamide or (2S,3R)-3-(5-chloropyrimidin-2-yl)-N-(5-(6-methoxypyridin-2-yl)-4-((S)-1-(1-methyl-1H-pyrazol-4-yl)ethyl)-4H-1,2,4-triazol-3-yl)butane-2-sulfonamide] | 4.3 nM
COc1cccc(-c2nnc(NS(=O)(=O)[C@@H](C)[C@H](C)c3ncc(Cl)cn3)n2[C@H](C)c2cnn(C)c2)n1 (racemic) [Example 298.0, (2S,3R)-3-(5-chloropyrimidin-2-yl)-N-(5-(6-methoxypyridin-2-yl)-4-((R)-1-(1-methyl-1H-pyrazol-4-yl)ethyl)-4H-1,2,4-triazol-3-yl)butane-2-sulfonamide or (2S,3R)-3-(5-chloropyrimidin-2-yl)-N-(5-(6-methoxypyridin-2-yl)-4-((S)-1-(1-methyl-1H-pyrazol-4-yl)ethyl)-4H-1,2,4-triazol-3-yl)butane-2-sulfonamide] | 1.5 nM
COc1cccc(-c2nnc(NS(=O)(=O)[C@@H](C)[C@H](OC)c3ncc(Cl)cn3)n2C[C@@H]2COCCO2)n1 (racemic) [Example 303.0, (1R,2S)-N-(4-(((R)-1,4-dioxan-2-yl)methyl)-5-(6-methoxypyridin-2-yl)-4H-1,2,4-triazol-3-yl)-1-(5-chloropyrimidin-2-yl)-1-methoxypropane-2-sulfonamide or (1R,2S)-N-(4-(((S)-1,4-dioxan-2-yl)methyl)-5-(6-methoxypyridin-2-yl)-4H-1,2,4-triazol-3-yl)-1-(5-chloropyrimidin-2-yl)-1-methoxypropane-2-sulfonamide] | 27 nM
COc1cccc(-c2nnc(NS(=O)(=O)[C@@H](C)[C@H](OC)c3ncc(Cl)cn3)n2C[C@@H]2COCCO2)n1 (racemic) [Example 304.0, (1R,2S)-N-(4-(((R)-1,4-dioxan-2-yl)methyl)-5-(6-methoxypyridin-2-yl)-4H-1,2,4-triazol-3-yl)-1-(5-chloropyrimidin-2-yl)-1-methoxypropane-2-sulfonamide or (1R,2S)-N-(4-(((S)-1,4-dioxan-2-yl)methyl)-5-(6-methoxypyridin-2-yl)-4H-1,2,4-triazol-3-yl)-1-(5-chloropyrimidin-2-yl)-1-methoxypropane-2-sulfonamide] | 20 nM
COc1cccc(-c2nnc(NS(=O)(=O)[C@@H](C)[C@H](OC)c3ncc(Cl)cn3)n2[C@@H](C)c2c(C)noc2C)n1 (racemic) [Example 309.0, (1R,2S)-1-(5-chloropyrimidin-2-yl)-N-(4-((R)-1-(3,5-dimethylisoxazol-4-yl)ethyl)-5-(6-methoxypyridin-2-yl)-4H-1,2,4-triazol-3-yl)-1-methoxypropane-2-sulfonamide or (1R,2S)-1-(5-chloropyrimidin-2-yl)-N-(4-((S)-1-(3,5-dimethylisoxazol-4-yl)ethyl)-5-(6-methoxypyridin-2-yl)-4H-1,2,4-triazol-3-yl)-1-methoxypropane-2-sulfonamide] | 9.2 nM
COc1cccc(-c2nnc(NS(=O)(=O)[C@@H](C)[C@H](OC)c3ncc(Cl)cn3)n2[C@@H](C)c2c(C)noc2C)n1 (racemic) [Example 310.0, (1R,2S)-1-(5-chloropyrimidin-2-yl)-N-(4-((R)-1-(3,5-dimethylisoxazol-4-yl)ethyl)-5-(6-methoxypyridin-2-yl)-4H-1,2,4-triazol-3-yl)-1-methoxypropane-2-sulfonamide or (1R,2S)-1-(5-chloropyrimidin-2-yl)-N-(4-((S)-1-(3,5-dimethylisoxazol-4-yl)ethyl)-5-(6-methoxypyridin-2-yl)-4H-1,2,4-triazol-3-yl)-1-methoxypropane-2-sulfonamide] | 7.4 nM
COc1cccc(-c2nnc(NS(=O)(=O)[C@@H](C)[C@H](OC)c3ncc(Cl)cn3)n2C[C@@H]2CCCOC2)n1 (racemic) [Example 311.0, (1R,2S)-1-(5-chloropyrimidin-2-yl)-1-methoxy-N-(5-(6-methoxypyridin-2-yl)-4-(((R)-tetrahydro-2H-pyran-3-yl)methyl)-4H-1,2,4-triazol-3-yl)propane-2-sulfonamide or (1R,2S)-1-(5-chloropyrimidin-2-yl)-1-methoxy-N-(5-(6-methoxypyridin-2-yl)-4-(((S)-tetrahydro-2H-pyran-3-yl)methyl)-4H-1,2,4-triazol-3-yl)propane-2-sulfonamide] | 33 nM
COc1cccc(-c2nnc(NS(=O)(=O)[C@@H](C)[C@H](OC)c3ncc(Cl)cn3)n2C[C@@H]2CCCOC2)n1 (racemic) [Example 312.0, (1R,2S)-1-(5-chloropyrimidin-2-yl)-1-methoxy-N-(5-(6-methoxypyridin-2-yl)-4-(((R)-tetrahydro-2H-pyran-3-yl)methyl)-4H-1,2,4-triazol-3-yl)propane-2-sulfonamide or (1R,2S)-1-(5-chloropyrimidin-2-yl)-1-methoxy-N-(5-(6-methoxypyridin-2-yl)-4-(((S)-tetrahydro-2H-pyran-3-yl)methyl)-4H-1,2,4-triazol-3-yl)propane-2-sulfonamide] | 13 nM
COc1cccc(-c2nnc(NS(=O)(=O)[C@@H](C)[C@H](C)c3ncc(Cl)cn3)n2[C@@H](C)c2c(C)noc2C)n1 (racemic) [Example 313.0, (2S,3R)-3-(5-chloropyrimidin-2-yl)-N-(4-((R)-1-(3,5-dimethylisoxazol-4-yl)ethyl)-5-(6-methoxypyridin-2-yl)-4H-1,2,4-triazol-3-yl)butane-2-sulfonamide or (2S,3R)-3-(5-chloropyrimidin-2-yl)-N-(4-((S)-1-(3,5-dimethylisoxazol-4-yl)ethyl)-5-(6-methoxypyridin-2-yl)-4H-1,2,4-triazol-3-yl)butane-2-sulfonamide] | 21 nM
